From patent US20030152557A1, “Methods for inhibiting histone deacetylase-4” (priority 2001, published 2003)

Assays:
[1] = tested on: A549; test: apoptosis, Cell Death Detection ELISA, A549; assay type: cell-based, human; conditions: 100 ng/ml, 48 hour treatment
Description: (§1) Briefly, human A549 and/or T24 human bladder carcinoma cells were seeded in 10 cm tissue culture dishes one day prior to oligonucleotide treatment. The cell lines were obtained from the American Type Culture Collection (ATCC) (Manassas, Va.) and were grown under the recommended culture conditions. Before the addition of the oligonucleotides, cells were washed with PBS (phosphate buffered saline). Next, lipofectin transfection reagent (GIBCO BRL Mississauga, Ontario, CA), at a concentration of 6.25 μg/ml, was added to serum free OPTIMEM medium (GIBCO BRL, Rockville, Md.), which was then added to the cells. The oligonucleotides to be screened were then added directly to the cells (i.e., one oligonucleotide per plate of cells). Mismatched oligonucleotides were used as controls. The same concentration of oligonucleotide (e.g., 50 nM) was used per plate of cells for each oligonucleotide tested.
(§2) In order to determine the effect of HDAC OSDNs on cell growth and cell death through apoptosis, A549 or T24 cells, MDAmb231 cells, and HMEC cells (ATCC, Manassas, Va.) were treated with HDAC OSDNs as previously described.
(§3) For the apoptosis study, cells were analyzed using the Cell Death Detection ELISA^Plus kit (Roche Diagnostic GmBH, Mannheim, Germany) according to the manufacturer's directions. Typically, 10,000 cells were plated in 96-well tissue culture dishes for 2 hours before harvest and lysis. Each sample was analyzed in duplicate. ELISA reading was done using a MR700 plate reader (DYNEX Technology, Ashford, Middlesex, England) at 410 nm. The reference was set at 490 nm.

[2] = tested on: MDAmb231; test: apoptosis, Cell Death Detection ELISA, MDAmb231; assay type: cell-based, human; conditions: 100 ng/ml, 48 hour treatment
Description: as §1, §2, §3

[3] = tested on: mammalian HDAC; conditions: Yoshida et al. 1990; cited from earlier work
[4] = tested on: A549 cells; test: RNase protection assay of p21, GADD45 and Bax mRNA, A549; conditions: A549, TSA 250 ng/ml 16 hours vs lipofectin
Description: As a control, A549 cells were treated by lipofectin with or without TSA (250 ng/ml) treatment for 16 hours. […] Total RNA from cells was prepared using “RNeasy miniprep kit” from QIAGEN following the manufacturer's manual. Labeled probes used in the protection assays were synthesized using “hStress-1 multiple-probe template sets” from Pharmingen (San Diego, Calif., U.S.A.) according to the manufacturer's instructions. Protection procedures were performed using “RPA II™ Ribonuclease Protection Assay Kit” from Ambion, (Austin, Tex.) following the manufacturer's instructions. Quantitation of the bands from autoradiograms was done by using Cyclone™ Phosphor System (Packard Instruments Co. Inc., Meriden, Conn.).

[5] = tested on: T24; test: apoptosis, Cell Death Detection ELISA, T24; assay type: cell-based, human; conditions: 100 ng/ml, 48 hour treatment
Description: as §1, §2, §3

[6] = tested on: HMEC; test: apoptosis, Cell Death Detection ELISA, HMEC; assay type: cell-based, human; conditions: 100 ng/ml, 48 hour treatment
Description: as §1, §2, §3

[7] = tested on: murine erythroleukemia cells; conditions: Yoshida et al. 1987; cited from earlier work

CC(/C=C/C(=O)NO)=C\[C@@H](C)C(=O)c1ccc(N(C)C)cc1 [TSA, (R)-Trichostatin A, reference compound]
Apoptosis A549 [1]: ++ (“++”: 3-5X fold) | Apoptosis MDAmb231 [2]: ++ (“++”: 3-5X fold) | inhibition of mammalian HDAC [3]: potent inhibitor of mammalian HDAC | fold induction of transcription Bax [4]: 0.8 fold | fold induction of transcription GADD45 [4]: 0.6 fold | fold induction of transcription p21 [4]: 2.8 fold | Apoptosis T24 [5]: ++ (“++”: 3-5X fold) | Apoptosis HMEC [6]: + (“+”: 2-3X fold) | induction of differentiation [7]: potent inducer of differentiation in murine erythroleukemia cells
